Results published in US9120752B2, “Pyridine compounds as sodium channel blockers” (Purdue Pharma, L.P., priority 2010, dated 2015).

Target: human Nav1.7 (Homo sapiens (Human), UniProt Q15858)
Assay: FLIPR or FLIPR TETRA sodium dye assay with KCl and test article pre-incubation
Type: cell-based
Details: sodium dye assay with KCl; recombinant Nav1.7/HEK293 cells; read-out: Nav1.7 IC50 (μM) ± SEM

Chain of human Nav1.7 (Q15858 other isoform, or with tags, fused parts or gaps): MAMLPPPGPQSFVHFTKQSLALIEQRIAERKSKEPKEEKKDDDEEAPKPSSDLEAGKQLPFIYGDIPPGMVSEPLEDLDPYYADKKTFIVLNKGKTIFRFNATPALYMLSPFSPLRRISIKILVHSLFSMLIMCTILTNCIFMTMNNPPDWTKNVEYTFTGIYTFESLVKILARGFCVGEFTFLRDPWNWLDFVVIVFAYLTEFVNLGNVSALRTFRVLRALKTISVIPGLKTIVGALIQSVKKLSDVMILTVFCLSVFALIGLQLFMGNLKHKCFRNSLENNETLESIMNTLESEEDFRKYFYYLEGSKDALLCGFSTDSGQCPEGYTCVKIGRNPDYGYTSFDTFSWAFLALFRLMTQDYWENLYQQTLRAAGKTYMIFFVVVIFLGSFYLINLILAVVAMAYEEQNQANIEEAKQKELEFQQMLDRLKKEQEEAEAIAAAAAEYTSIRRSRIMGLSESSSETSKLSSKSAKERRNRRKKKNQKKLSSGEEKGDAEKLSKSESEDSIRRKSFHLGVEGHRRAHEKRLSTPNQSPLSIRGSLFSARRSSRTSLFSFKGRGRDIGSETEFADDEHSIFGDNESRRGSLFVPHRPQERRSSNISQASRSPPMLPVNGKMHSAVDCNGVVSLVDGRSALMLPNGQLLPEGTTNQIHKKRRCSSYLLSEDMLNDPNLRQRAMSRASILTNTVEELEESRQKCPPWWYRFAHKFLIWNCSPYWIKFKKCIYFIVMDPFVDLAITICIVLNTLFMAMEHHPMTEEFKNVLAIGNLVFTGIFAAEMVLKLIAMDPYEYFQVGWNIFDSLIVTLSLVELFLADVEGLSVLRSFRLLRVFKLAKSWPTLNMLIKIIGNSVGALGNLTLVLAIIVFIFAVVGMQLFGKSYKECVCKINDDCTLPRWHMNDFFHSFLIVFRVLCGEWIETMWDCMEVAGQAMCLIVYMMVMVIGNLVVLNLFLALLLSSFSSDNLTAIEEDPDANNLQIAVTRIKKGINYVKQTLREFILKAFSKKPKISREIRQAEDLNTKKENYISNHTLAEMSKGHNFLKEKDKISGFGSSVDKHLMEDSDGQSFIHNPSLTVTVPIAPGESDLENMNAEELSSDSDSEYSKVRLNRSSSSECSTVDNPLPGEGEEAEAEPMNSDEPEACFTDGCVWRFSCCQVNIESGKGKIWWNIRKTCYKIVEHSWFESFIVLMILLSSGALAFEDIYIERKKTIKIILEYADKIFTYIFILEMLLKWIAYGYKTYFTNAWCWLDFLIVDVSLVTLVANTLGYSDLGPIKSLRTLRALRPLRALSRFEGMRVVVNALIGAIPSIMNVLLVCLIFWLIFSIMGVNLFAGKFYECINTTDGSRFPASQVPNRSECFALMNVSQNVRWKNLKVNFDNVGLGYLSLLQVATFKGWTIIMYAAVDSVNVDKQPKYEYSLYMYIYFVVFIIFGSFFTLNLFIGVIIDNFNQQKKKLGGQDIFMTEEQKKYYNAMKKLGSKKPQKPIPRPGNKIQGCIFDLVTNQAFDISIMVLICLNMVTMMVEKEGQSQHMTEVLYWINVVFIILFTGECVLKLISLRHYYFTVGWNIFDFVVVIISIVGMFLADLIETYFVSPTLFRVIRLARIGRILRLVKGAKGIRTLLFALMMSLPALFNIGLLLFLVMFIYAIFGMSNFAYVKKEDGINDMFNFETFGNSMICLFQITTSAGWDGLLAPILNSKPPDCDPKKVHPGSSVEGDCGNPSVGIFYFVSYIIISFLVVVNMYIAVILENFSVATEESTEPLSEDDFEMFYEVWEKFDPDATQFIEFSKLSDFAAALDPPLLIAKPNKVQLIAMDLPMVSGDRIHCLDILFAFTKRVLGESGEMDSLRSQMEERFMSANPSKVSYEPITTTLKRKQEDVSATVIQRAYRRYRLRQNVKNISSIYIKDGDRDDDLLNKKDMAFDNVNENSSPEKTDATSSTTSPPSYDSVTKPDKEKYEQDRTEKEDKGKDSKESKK

| SMILES | IC50 [µM] |
| --- | --- |
| CS(=O)(=O)N1CCN(C(=O)c2cccc(-c3ccc(Oc4ccc(F)cc4)cc3)n2)CC1 [Compound 13, (6-(4-(4-fluorophenoxy)phenyl)pyridin-2-yl)(4-(methylsulfonyl)piperazin-1-yl)methanone] | 1.31 ± 0.18 |
| CS(=O)(=O)c1cccc(S(=O)(=O)NCCNC(=O)c2cccc(-c3ccc(Oc4ccc(F)cc4)cc3)n2)c1 [Compound 23, 6-(4-(4-fluorophenoxy)phenyl)-N-(2-(3-(methylsulfonyl)phenylsulfonamido)ethyl)picolinamide] | 0.39 ± 0.03 |
| NC(=O)C[C@H](NC(=O)c1cccc(-c2ccc(Oc3ccc(F)cc3)cc2)n1)C(N)=O [Compound 39, (S)-2-({6-[4-(4-fluoro-phenoxy)-phenyl]-pyridine-2-carbonyl}-amino)-succinamide] | 0.75 ± 0.05 |
| NCCCC[C@H](NC(=O)c1cccc(-c2ccc(Oc3ccc(F)cc3)cc2)n1)C(N)=O [Compound 51, (S)—N-(1,6-diamino-1-oxohexan-2-yl)-6-(4-(4-fluorophenoxy)phenyl)picolinamide] | 2.89 ± 0.33 |
| CC(O)[C@H](NC(=O)c1cccc(-c2ccc(Oc3ccc(F)cc3)cc2)n1)C(N)=O (stereo partly drawn) [Compound 43, 6-[4-(4-fluoro-phenoxy)-phenyl]-pyridine-2-carboxylic acid ((S)-1-carbamoyl-2-hydroxy-propyl)-amide] | 1.56 ± 0.5 |
| CC(C)C[C@H](NC(=O)c1cc([C@H](O)CO)cc(-c2ccc(Oc3ccc(F)cc3)cc2)n1)C(N)=O [Compound 63, N—((S)-1-amino-4-methyl-1-oxopentan-2-yl)-4-((S)-1,2-dihydroxyethyl)-6-(4-(4-fluorophenoxy)phenyl)picolinamide] | 0.814 ± 0.231 |
| N#Cc1cccc(S(=O)(=O)N2CCN(C(=O)c3cccc(-c4ccc(F)cc4)n3)CC2)c1 [Compound 56, 3-((4-(6-(4-fluorophenyl)picolinoyl)piperazin-1-yl)sulfonyl)benzonitrile] | 6.81 ± 0.57 |
| N#Cc1cc(S(=O)(=O)N2CCN(C(=O)c3cccc(-c4ccc(Oc5ccc(F)cc5)cc4)n3)CC2)ccc1F [Compound 59] | 0.34 ± 0.13 |
| NC(=O)[C@H](Cc1ccc(O)cc1)NC(=O)c1cccc(-c2ccc(Oc3ccc(F)cc3)cc2)n1 [Compound 48, 6-[4-(4-fluoro-phenoxy)-phenyl]-pyridine-2-carboxylic acid [(S)-1-carbamoyl-2-(4-hydroxy-phenyl)-ethyl]-amide] | 0.55 ± 0.08 |
| CC(C)C[C@H](NC(=O)c1cc([C@@H](O)CO)cc(-c2ccc(Oc3ccc(F)cc3)cc2)n1)C(N)=O [Compound 65, N—((S)-1-amino-4-methyl-1-oxopentan-2-yl)-4-((R)-1,2-dihydroxyethyl)-6-(4-(4-fluorophenoxy)phenyl)picolinamide] | 1.56 ± 0.166 |
| N#Cc1cccc(S(=O)(=O)N2CCN(C(=O)c3cccc(Oc4ccc(F)cc4)n3)CC2)c1 [Compound 55, 3-((4-(6-(4-fluorophenoxy)picolinoyl)piperazin-1-yl)sulfonyl)benzonitrile] | 5.94 ± 0.73 |
| N#Cc1cccc(S(=O)(=O)N2CCN(C(=O)c3cccc(-c4ccc(Oc5ccc(F)cc5)cc4)n3)CC2)c1 [Compound 10, 3-((4-(6(4-(4-fluorophenoxy)phenyl)picolinoyl)piprazin-1-yl)sulfonyl)benzonitrile] | 0.43 ± 0.11 |
| NC(=O)[C@H](Cc1c[nH]cn1)NC(=O)c1cccc(-c2ccc(Oc3ccc(F)cc3)cc2)n1 [Compound 49, 6-[4-(4-fluoro-phenoxy)-phenyl]-pyridine-2-carboxylic acid [(S)-1-carbamoyl-2-(1H-imidazol-4-yl)-ethyl]-amide] | 0.33 ± 0.02 |
| CC1(C)C2CCC1(CS(=O)(=O)N1CCN(C(=O)c3cccc(-c4ccc(Oc5ccc(F)cc5)cc4)n3)CC1)C(=O)C2 (stereo not drawn) [Compound 12, 1-(((4-(6-(4-(4-fluorophenoxy)phenyl)picolinoyl)piperazin-1-yl)sulfonyl)methyl)-7,7-dimethylbicyclo[2.2.1]heptan-2-one] | 0.14 ± 0.04 |
| O=C(c1cccc(-c2ccc(Oc3ccc(F)cc3)cc2)n1)N1CCN(S(=O)(=O)c2cccnc2)CC1 [Compound 15, (6-(4-(4-fluorophenoxy)phenyl)pyridin-2-yl)(4-(pyridin-3-ylsulfonyl)piperazin-1-yl)methanone] | 0.42 ± 0.04 |
| N#Cc1cccc(S(=O)(=O)N2CCN(C(=O)c3cc([C@H](O)CO)cc(-c4ccc(Oc5ccc(F)cc5)cc4)n3)CC2)c1 [Compound 58, (S)-3-((4-(4-(1,2-dihydroxyethyl)-6-(4-(4-fluorophenoxy)phenyl)picolinoyl)piperazin-1-yl)sulfonyl)benzonitrile] | 2.31 ± 0.62 |
| O=C(O)c1ccc(S(=O)(=O)N2CCN(C(=O)c3cccc(-c4ccc(Oc5ccc(F)cc5)cc4)n3)CC2)cc1 [Compound 19, 4-((4-(6-(4-(4-fluorophenoxy)phenyl)picolinoyl)piperazin-1-yl)sulfonyl)benzoic acid] | 4.81 ± 0.18 |
| CC(C)[C@H](NC(=O)c1cccc(-c2ccc(Oc3ccc(F)cc3)cc2)n1)C(N)=O [Compound 46, 6-[4-(4-fluoro-phenoxy)-phenyl]-pyridine-2-carboxylic acid ((S)-1-carbamoyl-2-methyl-propyl)-amide] | 0.61 ± 0.05 |

| SMILES | IC50 [µM] |
| --- | --- |
| NC(=O)C[C@H](NC(=O)c1cc([C@@H](O)CO)cc(-c2ccc(Oc3ccc(F)cc3)cc2)n1)C(N)=O [Compound 66, (S)-2-(4-((R)-1,2-dihydroxyethyl)-6-(4-(4-fluorophenoxy)phenyl)picolinamido) succinamide] | > 20 |
| NC(=O)[C@H](Cc1cccnc1)NC(=O)c1cccc(-c2ccc(Oc3ccc(F)cc3)cc2)n1 [Compound 45, (S)—N-(1-amino-1-oxo-3-(pyridin-3-yl)propan-2-yl)-6-(4-(4-fluorophenoxy)phenyl)picolinamide] | 0.21 ± 0.04 |
| C[C@H](NC(=O)c1cccc(-c2ccc(Oc3ccc(C(F)(F)F)cn3)cc2)n1)C(N)=O [Compound 61, (S)—N-(1-amino-1-oxopropan-2-yl)-6-(4-((5-(trifluoromethyl)pyridin-2-yl)oxy)phenyl)picolinamide] | 4.34 ± 0.73 |
| O=C(c1cccc(-c2ccc(Oc3ccc(F)cc3)cc2)n1)N1CCN(S(=O)(=O)c2cccc(OC(F)(F)F)c2)CC1 [Compound 16] | 0.32 ± 0.09 |
| O=C(c1cccc(-c2ccc(Oc3ccc(F)cc3)cc2)n1)N1CCN(S(=O)(=O)c2ccc(OC(F)(F)F)cc2)CC1 [Compound 7, (6-(4-(4-fluorophenoxy)phenyl)pyridin-2-yl)(4-((4-(trifluoromethoxy)phenyl)sulfonyl)piperazin-1-yl)methanone] | 0.19 ± 0.05 |
| N#Cc1ccc(S(=O)(=O)N2CCN(C(=O)c3cccc(-c4ccc(Oc5ccc(F)cc5)cc4)n3)CC2)cc1 [Compound 17, 4-((4-(6-(4-(4-fluorophenoxy)phenyl)picolinoyl)piperazin-1-yl)sulfonyl)benzonitrile] | 0.97 ± 0.13 |
| NC(=O)[C@@H](CO)NC(=O)c1cccc(-c2ccc(Oc3ccc(F)cc3)cc2)n1 [Compound 40, 6-[4-(4-fluoro-phenoxy)-phenyl]-pyridine-2-carboxylic acid ((R)-1-carbamoyl-2-hydroxyl-ethyl)-amide] | 1.32 ± 0.16 |
| CC(C)C[C@H](NC(=O)c1cccc(-c2ccc(Oc3ccc(F)cc3)cc2)n1)C(N)=O [Compound 44, 6-[4-(4-fluoro-phenoxy)-phenyl]-pyridine-2-carboxylic acid ((S)-1-carbamoyl-3-methyl-butyl)-amide] | 0.34 ± 0.07 |
| NC(=O)[C@@H]1CCCN1C(=O)c1cccc(-c2ccc(Oc3ccc(F)cc3)cc2)n1 [Compound 42, (S)-1-{6-[4-(4-fluoro-phenoxy)-phenyl]-pyridine-2-carbonyl}-pyrrolidine-2-carboxylic acid amide] | 2.12 ± 0.35 |
| CN(C)S(=O)(=O)N1CCN(C(=O)c2cccc(-c3ccc(Oc4ccc(F)cc4)cc3)n2)CC1 [Compound 11, 4-(6-(4-(4-fluorophenoxy)phenyl)picolinoyl)-N,N-dimethyl-piperazine-1-sulfonamide] | 1.01 ± 0.09 |
| O=C(O)c1cccc(S(=O)(=O)N2CCN(C(=O)c3cccc(-c4ccc(Oc5ccc(F)cc5)cc4)n3)CC2)c1 [Compound 18, 3-((4-(6-(4-(4-fluorophenoxy)phenyl)picolinoyl)piperazin-1-yl)sulfonyl)benzoic acid] | 3.48 ± 0.72 |
| Cc1noc(C)c1S(=O)(=O)N1CCN(C(=O)c2cccc(-c3ccc(Oc4ccc(F)cc4)cc3)n2)CC1 [Compound 14, (4-((3,5-dimethylisoxazol-4-yl)sulfonyl)piperazin-1-yl)(6-(4-(4-fluorophenoxy)phenyl)pyridin-2-yl)methanone] | 0.22 ± 0.04 |
| NC(=O)C[C@H](NC(=O)c1cc([C@H](O)CO)cc(-c2ccc(Oc3ccc(F)cc3)cc2)n1)C(N)=O [Compound 64, (S)-2-(4-((S)-1,2-dihydroxyethyl)-6-(4-(4-fluorophenoxy)phenyl)picolinamido)succinamide] | > 20 |
| CS(=O)(=O)c1cccc(S(=O)(=O)N2CCN(C(=O)c3cccc(-c4ccc(Oc5ccc(F)cc5)cc4)n3)CC2)c1 [Compound 8, (6-(4-(4-fluorophenoxy)phenyl)pyridin-2-yl)(4-((3-(methylsulfonyl)phenyl)sulfonyl)piperazin-1-yl)methanone] | 0.78 ± 0.17 |
| NC(=O)[C@@H](Cc1c[nH]c2ccccc12)NC(=O)c1cccc(-c2ccc(Oc3ccc(F)cc3)cc2)n1 [Compound 37, 6-[4-(4-fluoro-phenoxy)-phenyl]-pyridine-2-carboxylic acid [(R)-1-carbamoyl-2-(1H-indol-3-yl)-ethyl]-amide] | 4.02 ± 2.78 |
| CN1CCOc2cc(S(=O)(=O)N3CCN(C(=O)c4cccc(-c5ccc(Oc6ccc(F)cc6)cc5)n4)CC3)ccc21 [Compound 60, (6-(4-(4-fluorophenoxy)phenyl)pyridin-2-yl)(4-((4-methyl-3,4-dihydro-2H-benzo[b][1,4]oxazin-7-yl)sulfonyl)piperazin-1-yl)methanone] | 0.78 ± 0.1 |
| NC(=O)[C@H](Cc1ccccc1)NC(=O)c1cccc(-c2ccc(Oc3ccc(F)cc3)cc2)n1 [Compound 41, 6-[4-(4-fluoro-phenoxy)-phenyl]-pyridine-2-carboxylic acid ((S)-1-carbamoyl-2-phenyl-ethyl)-amide] | > 20 |
| N#Cc1cccc(S(=O)(=O)NCCNC(=O)c2cccc(-c3ccc(Oc4ccc(F)cc4)cc3)n2)c1 [Compound 24, N-(2-(3-cyanophenylsulfonamido)ethyl)-6-(4-(4-fluorophenoxy)phenyl)picolinamide] | 0.03 ± 0.04 |
